Tests used:
HBV = type: cell-based, Hepatitis B virus; details: HepG2-NTCP cells
Description: HepG2 cells are representative cells that have immortalized human liver cells, and HepG2-NTCP cells refer to cells that overexpress sodium-taurocholate cotransporting polypeptide (NTCP). HepG2-NTCP cells are representative cells used to confirm the effect of inhibiting HBV host invasion.
HepG2-NTCP cells were grown in DMEM medium containing 10% FBS, penicillin (100 U), and streptomycin (0.1 mg/mL) at 37° C. with […]. […] The HepG2-NTCP cells were incubated with cyclic peptides in 12-well plates for 2 hours. Afterwards, the cells were infected by treating HBV particles (2×10^6 virus/mL) and cyclic peptide together and cultured for 3 hours. After removing the medium containing the virus, the cells were cultured for 16 hours. After the cells were treated with cyclic peptide, intracellular HBV DNA was extracted, purified, and quantified using a gene amplification test. To isolate HBV DNA from host cells, cells were lysed with cell lysis buffer (50 mM Tris-HCl, pH 7.5, 1 mM EDTA, 1% NP40) for 10 minutes on ice. […]. Micrococcal nuclease was inactivated by adding EGTA to a final concentration of […]. Afterwards, intracellular DNA of HBV was extracted using the G-SPIN™ set. […]
In vitro HBV entry inhibition assay based on quantification of intracellular DNA of HBV was performed. […]
The IC50 values are expressed as mean±SD. […]

[1] = Caco-2 permeability assay; details: human
Description: Caco-2 permeability assay was performed in triplicate. A 10 μM sample was dissolved in 1% (v/v) DMSO/HBSS solution, and 100 μM verapamil in Hank's Balanced Salt Solution (HBSS) buffer was used as a P-glycoprotein inhibitor. Inserts with Caco-2 cells were pre-incubated with verapamil for 30 min at 37° C., and then incubated for 2 hours at 37° C. without shaking. Efflux ratio was calculated as A to B permeability/B to A permeability. Aliquots (20 μL) were collected at each time point (0.5, 1, 1.5, and 2 hours). Experiments were performed in duplicate.

## Cyclosporine A [CsA]
HBV; 1 μM, intracellular HBV DNA, n=3
  HBV inhibition (%): 83 ± 8%
HBV; mean±SD, read-out: In vitro HBV entry inhibition (IC50)
  IC50: 400 ± 30 nM

## CN(C)C(=O)C(CCN1CCC(O)(c2ccc(Cl)cc2)CC1)(c1ccccc1)c1ccccc1 [loperamide]
[1]; Caco-2
  Papp A→B at 2 h, 10 μM: 2.9 ± 2 ×10⁻⁶ cm/s
  Papp B→A at 2 h, 10 μM: 27.5 ± 1.6 ×10⁻⁶ cm/s
  efflux ratio at 2 h, 10 μM: 10
[1]; Caco-2, A to B % recovery, A to B
  recovery at 2 h, 10 μM: 88 ± 6%
[1]; Caco-2, A to B with verapamil % recovery, A to B, 100 μM verapamil
  recovery at 2 h, 10 μM: 78 ± 1%
[1]; Caco-2, B to A % recovery, B to A
  recovery at 2 h, 10 μM: 85 ± 1%

— patent publication US20260258087A1, “PHARMACEUTICAL COMPOSITION FOR PREVENTING OR TREATING HEPATITIS B” (GWANGJU INSTITUTE OF SCIENCE AND TECHNOLOGY, priority 2022, published 2026)
